Several values for one entry are separate records, joined by “and”; a condition that tells them apart may be missing. Equal entries are not always repeated.

One series has as its system SARS-CoV-2. In kind it is cell-based.
In another series the test system is SARS-CoV-2-mNG. In kind it is cell-based.
For series [1], the system named is SARS-CoV-2 spike protein. In kind it is cell-based, human.
A further series concerns the target T1, yeast homolog of DHHC9 (Saccharomyces cerevisiae, UniProt Q06551).
T1 sequence (Q06551 1-359): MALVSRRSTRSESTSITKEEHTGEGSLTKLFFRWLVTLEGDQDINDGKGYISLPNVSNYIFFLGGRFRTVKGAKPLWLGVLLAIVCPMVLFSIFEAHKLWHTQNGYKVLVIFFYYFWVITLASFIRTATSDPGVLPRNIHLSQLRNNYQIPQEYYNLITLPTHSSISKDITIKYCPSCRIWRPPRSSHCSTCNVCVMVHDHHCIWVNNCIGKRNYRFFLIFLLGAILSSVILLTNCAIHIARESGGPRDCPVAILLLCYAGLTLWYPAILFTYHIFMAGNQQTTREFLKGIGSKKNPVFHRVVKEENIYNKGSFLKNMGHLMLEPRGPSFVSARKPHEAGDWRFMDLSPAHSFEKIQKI
T1 sequence (P41912 1-237 partner): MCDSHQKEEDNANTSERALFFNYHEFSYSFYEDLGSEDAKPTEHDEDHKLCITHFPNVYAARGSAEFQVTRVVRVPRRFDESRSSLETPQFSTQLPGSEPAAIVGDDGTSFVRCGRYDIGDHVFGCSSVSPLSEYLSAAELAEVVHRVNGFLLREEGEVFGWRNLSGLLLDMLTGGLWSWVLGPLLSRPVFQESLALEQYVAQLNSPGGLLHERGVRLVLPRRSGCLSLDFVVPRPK
The conditions noted are these: previous screen; cited from earlier work.

For the next series, the system named is HEK293T cells. The conditions noted are these: for observable toxicity: XTT, concentrations below 3 μM, relative to DMSO. A general note: Formazan colour is commonly taken as a measure of viable cells.
Another series has as its system Caco-2 cells. As to conditions: XTT, concentrations below 3 μM, relative to DMSO.
The test system of series [2] is SARS-CoV-2 spike protein. In kind it is cell-based.
Series [3] relates to SARS-COV-2 spike pseudotyped lentivirus. In kind it is cell-based.
The test system is the same in series [4]. The format is cell-based. This is another data set of the same source.
A further series deals with GAPDH. The format is cell-based, human. As to conditions: 10 μM, HEK293T cells.
Series [5] has as its system SARS-COV-2 spike pseudotyped lentivirus. In kind it is cell-based. The source holds these as a separate data set.

For the molecule `CC(C)Cc1ccc(C(C)CN2CCNC[C@@H]2CCCCN2CCN(CC(C)c3ccc(CC(C)C)cc3)[C@@H](Cc3ccc(O)cc3)C2)cc1` (stereo partly drawn) [Compound 2, 4-(((2S)-1-(2-(4-isobutylphenyl)propyl)-4-(4-((2S)-1-(2-(4-isobutylphenyl)propyl)piperazin-2-yl)butyl)piperazin-2-yl)methyl) phenol], the “reduction viral infection of Vero-E6 cells” value in the series on SARS-CoV-2 came to 60%. For the same molecule, the mNeonGreen signal entry in the series with SARS-CoV-2-mNG is given as “dose dependent reduction in mNeonGreen signal”. Further, the “reduction in syncytia formation” value in the series on SARS-CoV-2 spike protein [1] was 58% and 60%. For the same molecule, the inhibition of palmitoylation entry at yeast homolog of DHHC9 was “low micromolar concentrations”. The molecule further gave a maximal non-toxic concentration in the series with HEK293T cells of 3 µM. Also, the observable toxicity result in the series with HEK293T cells and with Caco-2 cells was “no observable toxicity” throughout. In addition, in the series with SARS-CoV-2 spike protein [2], the “reduction of palmitoylation of the spike protein” value was found to be 37%. Moreover, in [3], the “quantity of pseudovirus released from the producer cells (egress)” value is listed as “do not reduce the quantity of pseudovirus released”.
Consider `CCCCCCCCCCCCCCC(Br)C(=O)O` (centres unmarked) [Compound 2-BP, 2-bromopalmitic acid, reference compound], for which, in series [4], the “luciferase signal (pseudovirus infection)” value is reported as “reduced luciferase signal significantly”. Besides, in the series with SARS-CoV-2-mNG, the mNeonGreen signal result is “dose dependent reduction in mNeonGreen signal”. In the series with GAPDH, the GAPDH palmitoylation result is reported as “reduced”. For the same molecule, in the series with SARS-CoV-2 spike protein [2], the spike palmitoylation result is given as “inhibited spike palmitoylation”. Further, the “pseudovirus infection (luciferase)” value in series [5] was “significant reduction in pseudovirus infection”.
As for `CC(C)Cc1ccc(C(C)CN2CCN(CCCC[C@H]3CNCCN3CCc3cc(C(F)(F)F)cc(C(F)(F)F)c3)C[C@@H]2Cc2ccc(O)cc2)cc1` (stereo partly drawn) [Compound 3, 4-(((2S)-4-(4-((S)-1-(3,5-bis(trifluoromethyl)phenethyl)piperazin-2-yl)butyl)-1-(2-(4-isobutylphenyl)propyl)piperazin-2-yl)methyl) phenol], the “reduction viral infection of Vero-E6 cells” value in the series on SARS-CoV-2 stood at 76%. For the same molecule, the mNeonGreen signal entry with SARS-CoV-2-mNG is on record as “dose dependent reduction in mNeonGreen signal”. Further, the “reduction in syncytia formation” value with SARS-CoV-2 spike protein [1] is 45% and 50%. Moreover, the inhibition of palmitoylation result on yeast homolog of DHHC9 is reported as “low micromolar concentrations”. For the same molecule, in the series with HEK293T cells, the maximal non-toxic concentration was 3 µM and the observable toxicity entry was “no observable toxicity”. Further, the observable toxicity entry in the series on Caco-2 cells is “no observable toxicity”. For the same molecule, in the series on SARS-CoV-2 spike protein [2], the “reduction of palmitoylation of the spike protein” value amounted to 44%. In addition, the “quantity of pseudovirus released from the producer cells (egress)” value in [3] is “do not reduce the quantity of pseudovirus released”.

These data come from patent publication US12102635B2, “Methods of using protein palmitoylations inhibitors” (priority 2021, dated 2024).
